# According to ChEMBL document CHEMBL1130170, “Orally active trifluoromethyl ketone inhibitors of human leukocyte elastase” (J Med Chem, 1997):
# Where a SMILES comes first, the peptide text is derived from it. The star is where a group is joined. CF3 = FC(F)(F)*; Moc = COC(=O)*
# How the values were obtained:
# Cricetinae gen. sp. [1] = test: Percent inhibition of elastase-induced lung damage by 10 mg/kg dosed orally, 30 minutes prior to the instillation of 50 ug of elastase; assay type: functional, Cricetulus griseus
# [2] = Maximum concentration of the unchanged compound in dog plasma, recorded in the period 0-6 hr post dose.; assay type: ADME, organism-based, Canis lupus familiaris
# [3] = Half-life of compound in plasma of rat; assay type: ADME, organism-based
# [4] = Intravenous integrated area under the concentration vs time curve, for compound in dog plasma; assay type: ADME, organism-based, Canis lupus familiaris
# Prothrombin = Prothrombin (Homo sapiens, UniProt P00734); test: Binding affinity for human plasma thrombin; No inhibition at 188 uM (highest concentration tested); assay type: cell-free
# Papain = target: T1, Papain (Carica papaya, UniProt P00784); test: Binding affinity for papaya papain; No inhibition at 188 uM (highest concentration tested)
# T1 sequence (P00784 whole entry): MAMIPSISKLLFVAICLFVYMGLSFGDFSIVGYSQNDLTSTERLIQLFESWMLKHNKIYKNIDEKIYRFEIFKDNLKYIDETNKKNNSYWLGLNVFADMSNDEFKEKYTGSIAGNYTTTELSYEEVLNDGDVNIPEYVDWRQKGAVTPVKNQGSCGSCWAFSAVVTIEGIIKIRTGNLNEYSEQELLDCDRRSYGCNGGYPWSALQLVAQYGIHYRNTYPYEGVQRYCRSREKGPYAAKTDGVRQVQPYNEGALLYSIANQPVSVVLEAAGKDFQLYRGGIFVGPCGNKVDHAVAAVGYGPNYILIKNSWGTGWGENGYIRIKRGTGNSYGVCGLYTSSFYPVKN
# [5] = Half-life of compound in plasma of dog; assay type: ADME, organism-based, Canis lupus familiaris
# [6] = Oral integrated area under the concentration vs time curve, for compound in dog plasma; assay type: ADME, organism-based, Canis lupus familiaris
# [7] = Time of maximum concentration of compound in rat plasma.; assay type: ADME, organism-based
# [8] = Bioavailability in rat; assay type: ADME, organism-based; conditions: in vivo
# Kallikrein-1 = Kallikrein-1 (Homo sapiens, UniProt P06870); test: Binding affinity for human urine kallikrein; No inhibition at 188 uM (highest concentration tested)
# Chain of Kallikrein-1 (P06870 whole entry): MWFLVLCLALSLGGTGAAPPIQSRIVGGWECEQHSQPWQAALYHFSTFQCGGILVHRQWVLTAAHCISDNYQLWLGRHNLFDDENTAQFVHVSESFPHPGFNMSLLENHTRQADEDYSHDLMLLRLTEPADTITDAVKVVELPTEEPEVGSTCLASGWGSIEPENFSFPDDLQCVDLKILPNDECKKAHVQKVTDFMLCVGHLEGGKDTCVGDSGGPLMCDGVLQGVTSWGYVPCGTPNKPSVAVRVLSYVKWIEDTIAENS
# [9] = Intravenous integrated area under the concentration vs time curve, for compound in rat plasma; assay type: ADME, organism-based
# [10] = Oral integrated area under the concentration vs time curve, for compound in rat plasma; assay type: ADME, organism-based
# Plasma kallikrein = Plasma kallikrein (Homo sapiens, UniProt P03952); test: Binding affinity for human plasma kallikrein; No inhibition at 188 uM (highest concentration tested); assay type: cell-free
# Chain of Plasma kallikrein (P03952 20-390 limits assumed): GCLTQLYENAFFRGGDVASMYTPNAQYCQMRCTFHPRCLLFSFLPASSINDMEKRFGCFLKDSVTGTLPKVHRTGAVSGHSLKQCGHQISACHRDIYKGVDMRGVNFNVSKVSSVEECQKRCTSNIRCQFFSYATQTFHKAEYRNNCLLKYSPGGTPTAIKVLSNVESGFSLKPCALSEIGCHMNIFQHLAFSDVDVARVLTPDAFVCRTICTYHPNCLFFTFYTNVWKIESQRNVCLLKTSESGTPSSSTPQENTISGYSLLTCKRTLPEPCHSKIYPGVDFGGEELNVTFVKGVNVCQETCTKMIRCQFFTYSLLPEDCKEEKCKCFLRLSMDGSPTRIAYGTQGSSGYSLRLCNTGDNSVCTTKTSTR
# Chain of Plasma kallikrein (P03952 391-638 limits assumed): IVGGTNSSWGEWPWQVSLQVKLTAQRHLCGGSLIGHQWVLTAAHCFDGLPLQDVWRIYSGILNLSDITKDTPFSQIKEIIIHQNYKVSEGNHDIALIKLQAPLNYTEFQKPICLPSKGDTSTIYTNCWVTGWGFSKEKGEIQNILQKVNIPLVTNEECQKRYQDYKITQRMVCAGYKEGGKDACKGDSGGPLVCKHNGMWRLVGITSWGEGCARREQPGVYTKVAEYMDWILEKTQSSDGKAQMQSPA
# [11] = Maximum concentration of the unchanged compound in hamster plasma, recorded in the period 0-6 hr post dose.; assay type: ADME, organism-based; conditions: cricetinae
# [12] = Bioavailability in hamster; assay type: ADME, organism-based, Cricetulus griseus; conditions: chinese hamster, in vivo
# [13] = Oral integrated area under the concentration vs time curve, for compound in hamster plasma; assay type: ADME, organism-based; conditions: cricetinae
# [14] = Half-life of compound in plasma of hamster; assay type: ADME, organism-based; conditions: cricetinae
# Procathepsin L = Procathepsin L (Bos taurus, UniProt P25975); test: Binding affinity for bovine spleen cathepsin L; No inhibition at 188 uM (highest concentration tested)
# Chain of Procathepsin L (P25975 whole entry): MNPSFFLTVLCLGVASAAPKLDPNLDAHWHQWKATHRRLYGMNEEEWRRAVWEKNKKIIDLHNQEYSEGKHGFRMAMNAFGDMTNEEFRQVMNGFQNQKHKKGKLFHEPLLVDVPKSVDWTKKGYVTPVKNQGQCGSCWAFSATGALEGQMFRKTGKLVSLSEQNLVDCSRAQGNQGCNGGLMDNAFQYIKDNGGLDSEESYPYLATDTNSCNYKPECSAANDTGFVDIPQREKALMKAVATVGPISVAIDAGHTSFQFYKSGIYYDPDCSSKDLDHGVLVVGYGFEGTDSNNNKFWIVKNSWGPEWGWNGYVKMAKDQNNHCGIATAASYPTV
# [15] = target: T2, Angiotensin-converting enzyme (Oryctolagus cuniculus, UniProt P12822); test: Binding affinity for rabbit lung Angiotensin I converting enzyme; No inhibition at 188 uM (highest concentration tested)
# T2 sequence (P12822 whole entry): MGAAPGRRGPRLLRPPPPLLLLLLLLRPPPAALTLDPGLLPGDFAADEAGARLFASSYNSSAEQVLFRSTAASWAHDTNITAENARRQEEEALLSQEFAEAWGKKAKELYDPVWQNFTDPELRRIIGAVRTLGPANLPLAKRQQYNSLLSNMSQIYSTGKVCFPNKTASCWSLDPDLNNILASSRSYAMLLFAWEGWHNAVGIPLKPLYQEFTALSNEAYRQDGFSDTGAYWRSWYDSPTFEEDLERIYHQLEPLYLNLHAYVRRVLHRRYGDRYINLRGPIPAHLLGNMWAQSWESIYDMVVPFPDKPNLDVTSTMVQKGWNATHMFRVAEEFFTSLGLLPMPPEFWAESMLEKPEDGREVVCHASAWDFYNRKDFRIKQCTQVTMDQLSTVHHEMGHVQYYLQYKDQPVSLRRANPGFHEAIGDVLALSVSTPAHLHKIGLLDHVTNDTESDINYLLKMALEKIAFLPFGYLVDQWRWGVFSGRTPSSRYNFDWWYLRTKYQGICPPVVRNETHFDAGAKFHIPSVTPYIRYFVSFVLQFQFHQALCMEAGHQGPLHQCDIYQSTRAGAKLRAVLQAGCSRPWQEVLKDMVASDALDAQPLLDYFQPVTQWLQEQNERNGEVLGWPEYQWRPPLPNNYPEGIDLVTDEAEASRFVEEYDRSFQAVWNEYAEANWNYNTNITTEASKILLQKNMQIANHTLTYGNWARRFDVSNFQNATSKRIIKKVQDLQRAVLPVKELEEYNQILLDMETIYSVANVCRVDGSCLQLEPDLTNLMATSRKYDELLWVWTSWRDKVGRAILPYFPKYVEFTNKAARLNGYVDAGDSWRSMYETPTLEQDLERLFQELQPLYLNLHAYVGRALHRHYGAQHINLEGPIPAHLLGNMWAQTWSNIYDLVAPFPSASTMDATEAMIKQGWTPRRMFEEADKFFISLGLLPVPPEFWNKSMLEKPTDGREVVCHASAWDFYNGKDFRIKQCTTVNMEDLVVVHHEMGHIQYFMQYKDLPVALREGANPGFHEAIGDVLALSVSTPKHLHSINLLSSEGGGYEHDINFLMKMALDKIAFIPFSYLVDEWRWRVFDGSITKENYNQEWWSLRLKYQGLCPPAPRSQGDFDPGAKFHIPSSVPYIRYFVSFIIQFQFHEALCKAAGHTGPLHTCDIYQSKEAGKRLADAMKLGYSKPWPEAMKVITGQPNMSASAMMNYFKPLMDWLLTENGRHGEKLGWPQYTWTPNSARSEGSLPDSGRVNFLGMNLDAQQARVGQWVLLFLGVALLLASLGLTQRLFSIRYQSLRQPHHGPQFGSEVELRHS
# [16] = Time of maximum concentration of compound in dog plasma.; assay type: ADME, organism-based, Canis lupus familiaris
# [17] = Maximum concentration of the unchanged compound in rat plasma, recorded in the period 0-6 hr post dose.; assay type: ADME, organism-based
# [18] = Time of maximum concentration of compound in hamster plasma.; assay type: ADME, organism-based; conditions: cricetinae
# Cricetinae gen. sp. [19] = test: Effective dose in the Acute Hemarrhagic Assay model after i.v. administration; assay type: functional, Cricetulus griseus; conditions: iv
Structure (SMILES),Cmax [2] [ng/mL],half-life [3] [min],AUC [4] [ng·h/mL],Ki (Prothrombin),Ki (Papain),half-life [5] [min],AUC [6] [ng·h/mL],Tmax [7] [min],bioavailability [8] [%],Ki (Kallikrein-1),AUC [9] [ng·h/mL],AUC [10] [ng·h/mL],Ki (Plasma kallikrein),Cmax [11] [ng/mL],bioavailability [12] [%],AUC [13] [ng·h/mL],half-life [14] [min],Ki (Procathepsin L),Ki [15],Tmax [16] [min],further results
COC(=O)N[C@H](C(=O)N1CCC[C@H]1C(=O)N[C@H](C(=O)C(F)(F)F)C(C)C)C(C)C (Moc-Val-Pro-Val-CF3),5440,78,9370,No inhibition,No inhibition,48.6,6540,30,84,No inhibition,6540,5480,No inhibition,1460,75,2160,120,No inhibition,No inhibition,19.8,"inhibition in vivo at 10 mg/kg (Cricetinae gen. sp. [1]; Cricetinae gen. sp., po): 92%; Cmax [17]: 3690 ng/mL; Tmax [18]: 15 min; ED50 (Cricetinae gen. sp. [19]): 0.51 mg/kg"
COc1ccc(C(=O)N[C@H](C(=O)N2CCC[C@H]2C(=O)N[C@H](C(=O)C(F)(F)F)C(C)C)C(C)C)cc1 (stereo in doubt; 1k),382,49.2,3180,No inhibition,No inhibition,120,1250,15,82,No inhibition,1700,1400,No inhibition,373,26,355,72,No inhibition,No inhibition,30,Inhibition (Cricetinae gen. sp. [1]; 10 mg/kg): 84%; Cmax [17]: 972 ng/mL; Tmax [18]: 30 min; ED50 (Cricetinae gen. sp. [19]): 0.59 mg/kg
